Test results: patent publication US9181189B2, “Lipogenesis inhibitor compounds” (PIERRE FABRE DERMO-COSMETIQUE, priority 2011, dated 2015)

Tests used:
[1] = system: differentiated sebocytes (Tel-E6E7 line); experiment: Production of intracellular lipids by differentiated sebocytes (Nile Red / Adipored quantitation); format: cell-based, human; conditions: for production of lipids by the sebocytes: Tel-E6E7 line differentiated 7 days in the presence of testosterone and other supplements, FIG. 1; for inhibitor effect on lipogenesis directly induced by DHT: Tel-E6E7 line differentiated in the presence of DHT and other supplements, FIG. 2
Protocol: The Tel-E6E7 line (courtesy of Dr. Stephen Lyle, University of Massachusetts, USA) is a human epithelial line derived from stem cells of the hair follicle bulb.
Differentiation into sebocytes of the Tel-E6E7 line was conducted under the conditions described by S. Lyle. The cells were seeded in 24-well plates at a density of 25 000 cells/cm^2 in DME medium supplemented with 46% HamF12 medium, 6% foetal calf serum (FCII, Hyclone), 2% human serum and 10 nM EGF. Two days after seeding, the differentiation of the cells into sebocytes was induced by adding the following supplements to the culture medium: 0.1 μM testosterone (or DHT (0.1 μM)), 1 μM Troglitazone, 100 μM WyA4643 and 10 nM Insulin. The derivatives to be tested were added at the same time. Sebocyte differentiation was continued for 7 days. The culture medium and the derivatives to be tested were renewed every 2-3 days. The production of intracellular lipids was measured by quantitation of the Nile Red marker (Adipored kit, Lonza) and following the manufacturer's instructions. The amount of measured fluorescence (Relative Fluorescence Units) is proportional to the quantity of accumulated neutral intracellular lipids. All tested conditions were performed in duplicate and repeated three times.
The inventors studied the variations in lipid levels produced by the sebocytes after a differentiation time of 7 days in the presence of testosterone treated with the derivatives of the present invention.

type-1 5-α-reductase = target: T1, type-1 5-α-reductase (Homo sapiens, UniProt P18405); conditions: fibroblast cultures; cited from earlier work
T1 construct: endogenous in cells
T1 sequence (P18405 1-259): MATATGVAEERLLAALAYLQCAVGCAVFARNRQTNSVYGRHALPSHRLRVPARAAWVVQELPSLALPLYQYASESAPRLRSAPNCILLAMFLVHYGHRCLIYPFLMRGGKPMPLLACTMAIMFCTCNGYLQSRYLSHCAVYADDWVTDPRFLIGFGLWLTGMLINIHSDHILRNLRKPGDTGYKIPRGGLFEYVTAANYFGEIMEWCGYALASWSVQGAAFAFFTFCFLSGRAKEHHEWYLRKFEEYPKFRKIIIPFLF

| SMILES | production of lipids by the sebocytes ([1]; 10 μM) | production of lipids by the sebocytes ([1]; 5 μM) | inhibiting effect on type-1 5-α-reductase (type-1 5-α-reductase) | inhibitor effect on lipogenesis directly induced by DHT [1] |
| --- | --- | --- | --- | --- |
| CCCCCCCCCCCC(=O)OCC(O)COC(=O)C1CCCNC1 (centres unmarked) [3-(dodecanoyloxy)-2-hydroxypropyl piperidine-3-carboxylate] | significant decrease | – | – | – |
| CCCCCCCCCCCC(=O)OCC(O)COC(=O)c1cccnc1 (centres unmarked) [glyceryl laurate nicotinate, 3-(dodecanoyloxy)-2-hydroxypropyl nicotinate] | decreases most significantly | decreases most significantly | – | – |
| CCCCCCCCCCCC(=O)OCC(O)CO (centres unmarked) [glyceryl laurate, 2,3-dihydroxypropyl dodecanoate] | does not reach the significance threshold | does not reach the significance threshold | inhibiting effect | – |
| O=C(O)c1cccnc1 [nicotinic acid] | – | – | – | do not show any inhibitor effect |
| O=C(O)C1CCCNC1 (centres unmarked) [nipecotic acid] | – | – | – | do not show any inhibitor effect |
